# Source: patent US8796256B2 (Janssen Pharmaceutica NV, priority 2010, dated 2014)
# Where two headings read alike, the source gives them in different places.
# What was measured:
# [1] = target: T1, ERR1 (also known as ERR-α or ERR-1) (Homo sapiens, UniProt P11474); experiment: TR-FRET assay (disruption of co-activator peptide binding to ERR1 LBD); type: biochemical; settings: 6 nM 6His-ERR1LBD, 6 nM GST-SRC-2 peptide; average of 3 independent experiments
# T1 sequence (P11474 193-421 limits assumed): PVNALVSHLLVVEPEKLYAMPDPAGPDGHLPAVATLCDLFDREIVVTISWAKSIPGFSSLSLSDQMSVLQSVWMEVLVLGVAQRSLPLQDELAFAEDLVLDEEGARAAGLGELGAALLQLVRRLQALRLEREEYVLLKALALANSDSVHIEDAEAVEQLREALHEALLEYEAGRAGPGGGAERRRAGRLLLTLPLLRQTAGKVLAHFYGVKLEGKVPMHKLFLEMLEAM
# In short: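 Homogeneous TR-FRET measuring displacement of GST-hSRC2 co-activator peptide (6 nM) from His-tagged ERR1 LBD (6 nM), detected with α-GST Eu cryptate (30 nM) and α-His-XL665 (7.5 nM). Buffer 25 mM Tris pH 8, 2.5 mM Hepes, 20 mM KCl, 1 mM DTT, 0.05 mg/mL delipidated BSA; equilibration 4-18 h at 25° C. Hyperbolic dose-response fit, mean of 3 experiments.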
# [2] = tested on: Zucker fa/fa male rats; experiment: Zucker fa/fa Rat Model Assay; type: in vivo; settings: po, 120 h, 10 mg/kg orally once a day for 4 days
# From the text: Zucker fa/fa is a monogenic model of frank diabetes due to a mutation on the fa gene truncating the leptin receptor and preventing its interaction with its peptide hormone. This mutation results in a hyperphagic phenotype and the rodent develops obesity, hyperlipidemia, fasting hyperglycemia and insulin resistance. Zucker fa/fa male rats were received at four weeks of age and allowed to acclimate for one week. At five weeks of age the animals were single housed in cages in a temperature-controlled room with 12-hour light/dark cycle. The rats were allowed ad libitum access to water and food and throughout the study were maintained on a Purina 5008 diet. Animals were sorted based primarily on fed insulin levels and circulating triglycerides. Animals were dosed orally once a day (10 mg/kg) in the morning for 4 days. The vehicle used was either 20% HPβCD (Hydroxypropyl Beta Cyclodextrin) or 15% Vitamin E/30% PEG-400 (Polyethylene Glycol 400). Fed insulin and triglycerides were measured using blood collected from the tail vein at day 5. Serum plasma samples were prepared by centrifugation in EDTA (Ethylenediaminetetraacetic acid) containing tubes, transferred into 96 well plates and stored at −80° C.
# [3] = blood from tail vein at day 5, read-out: % Change Fed Insulin Levels
# [4] = blood from tail vein at day 5, read-out: % Change Fed Triglyceride Levels
Structure (SMILES),EC50 [1] [nM],"change in vivo at 10 mg/kg [2, 3] [%]","change in vivo at 10 mg/kg [2, 4] [%]"
"O=C(O)CN1C(=O)S/C(=C\c2ccc3c(cnn3Cc3ccc(C(F)(F)F)cc3C(F)(F)F)c2)C1=O [Compound 59, [(5Z)-5-({1-[2,4-Bis(trifluoromethyl)benzyl]-1H-indazol-5-yl}methylidene)-2,4-dioxo-1,3-thiazolidin-3-yl]acetic acid]",26,-23,-25
"O=C1S/C(=C\c2ccc3c(cnn3Cc3ccc(Cl)cc3C(F)(F)F)c2)C(=O)N1Cc1nn[nH]n1 [Compound 72, (5Z)-5-({1-[4-Chloro-2-(trifluoromethyl)benzyl]-1H-indazol-5-yl}methylidene)-3-(2H-tetrazol-5-ylmethyl)-1,3-thiazolidine-2,4-dione]",13,-44,-51
"O=C(CN1C(=O)S/C(=C\c2ccc3c(cnn3Cc3ccc(Cl)cc3C(F)(F)F)c2)C1=O)NS(=O)(=O)N1CCCC1 [Compound 38, 2-[(5Z)-5-({1-[4-Chloro-2-(trifluoromethyl)benzyl]-1H-indazol-5-yl}methylidene)-2,4-dioxo-1,3-thiazolidin-3-yl]-N-(pyrrolidin-1-ylsulfonyl)acetamide]",25,-47,1
"CS(=O)(=O)NN1C(=O)S/C(=C\c2ccc3c(cnn3Cc3ccc(Cl)cc3C(F)(F)F)c2)C1=O [Compound 361, N-[(5Z)-5-({1-[4-Chloro-2-(trifluoromethyl)benzyl]-1H-indazol-5-yl}methylidene)-2,4-dioxo-1,3-thiazolidin-3-yl]methanesulfonamide]",13,-58,-43
"O=C(O)CN1CCC(N2C(=O)S/C(=C\c3ccc4c(cnn4Cc4ccc(Cl)cc4C(F)(F)F)c3)C2=O)CC1 [Compound 146, {4-[(5Z)-5-({1-[4-Chloro-2-(trifluoromethyl)benzyl]-1H-indazol-5-yl}methylidene)-2,4-dioxo-1,3-thiazolidin-3-yl]piperidin-1-yl}acetic acid]",16,-26,-14
"O=C(O)CN1C(=O)S/C(=C\c2ccc3c(c2)nnn3Cc2ccc(Cl)cc2C(F)(F)F)C1=O [Compound 260, [(5Z)-5-({1-[4-Chloro-2-(trifluoromethyl)benzyl]-1H-benzotriazol-5-yl}methylidene)-2,4-dioxo-1,3-thiazolidin-3-yl]acetic acid]",41,-50,-23
"CS(=O)(=O)NC(=O)CN1C(=O)S/C(=C\c2ccc3c(cnn3Cc3ccc(Cl)cc3C(F)(F)F)c2)C1=O [Compound 126, 2-[(5Z)-5-({1-[4-Chloro-2-(trifluoromethyl)benzyl]-1H-indazol-5-yl}methylidene)-2,4-dioxo-1,3-thiazolidin-3-yl]-N-(methylsulfonyl)acetamide]",18,-14,13
"O=C1S/C(=C\c2ccc3c(cnn3Cc3ccc(Cl)cc3C(F)(F)F)c2)C(=O)N1CCNS(=O)(=O)C(F)(F)F [Compound 55, N-{2-[(5Z)-5-({1-[4-Chloro-2-(trifluoromethyl)benzyl]-1H-indazol-5-yl}methylidene)-2,4-dioxo-1,3-thiazolidin-3-yl]ethyl}-1,1,1-trifluoromethanesulfonamide]",101,,
"N[C@@H]1CCCC[C@H]1N1C(=O)S/C(=C\c2ccc3c(cnn3Cc3ccc(Cl)cc3C(F)(F)F)c2)C1=O [Compound 174, (5Z)-3-[(1R,2R)-2-Aminocyclohexyl]-5-({1-[4-chloro-2-(trifluoromethyl)benzyl]-1H-indazol-5-yl}methylidine)-1,3-thiazolidine-2,4-dione]",150,,
"NS(=O)(=O)NC(=O)CN1C(=O)S/C(=C\c2ccc3c(cnn3Cc3ccc(C(F)(F)F)cc3C(F)(F)F)c2)C1=O [Compound 87, 2-[(5Z)-5-({1-[2,4-Bis(trifluoromethyl)benzyl]-1H-indazol-5-yl}methylidene)-2,4-dioxo-1,3-thiazolidin-3-yl]-N-sulfamoylacetamide]",650,,

# Now from value to compound, other results behind:
EC50 [1] [nM],Structure (SMILES),"change in vivo at 10 mg/kg [2, 3] [%]","change in vivo at 10 mg/kg [2, 4] [%]"
8,"COc1ccc(Cn2ncc3cc(/C=C4\SC(=O)N(CCN5CCOCC5)C4=O)ccc32)c(C(F)(F)F)c1 [Compound 8, (5Z)-5-[(1-{[4-(Methyloxy)-2-(trifluoromethyl)phenyl]methyl}-1H-indazol-5-yl)methylidene]-3-(2-morpholin-4-ylethyl)-1,3-thiazolidine-2,4-dione]",-21,-19
5,"CN1CCC[C@H]1CN1C(=O)S/C(=C\c2ccc3c(cnn3Cc3ccc(Cl)cc3C(F)(F)F)c2)C1=O [Compound 121, (5Z)-5-({1-[4-Chloro-2-(trifluoromethyl)benzyl]-1H-indazol-5-yl}methylidene)-3-{[(2S)-1-methylpyrrolidin-2-yl]methyl}-1,3-thiazolidine-2,4-dione]",-59,-37
35,"O=C1S/C(=C\c2ccc3c(cnn3Cc3ccc(Cl)cc3C(F)(F)F)c2)C(=O)N1C[C@H]1CN2CCC[C@H]2CO1 [Compound 202, (5Z)-5-({1-[4-Chloro-2-(trifluoromethyl)benzyl]-1H-indazol-5-yl}methylidene)-3-[(3R,8aS)-hexahydro-1H-pyrrolo[2,1-c] [1,4]oxazin-3-ylmethyl]-1,3-thiazolidine-2,4-dione]",-3,-26
58,"CN1CC[C@@H](N2C(=O)S/C(=C\c3ccc4c(cnn4Cc4ccc(Cl)cc4C(F)(F)F)c3)C2=O)[C@H](F)C1 (relative stereo) [Compound 277, (5Z)-5-({1-[4-Chloro-2-(trifluoromethyl)benzyl]-1H-indazol-5-yl}methylidene)-3-(trans-3-fluoro-1-methylpiperidin-4-yl)-1,3-thiazolidine-2,4-dione]",-73,-57
16,"O=C1S/C(=C\c2ccc3c(cnn3Cc3ccc(Cl)cc3C(F)(F)F)c2)C(=O)N1O [Compound 288, (5Z)-5-({1-[4-Chloro-2-(trifluoromethyl)benzyl]-1H-indazol-5-yl}methylidene)-3-hydroxy-1,3-thiazolidine-2,4-dione]",-35,-29
24,"C[C@H](N)CN1C(=O)S/C(=C\c2ccc3c(cnn3Cc3ccc(Cl)cc3C(F)(F)F)c2)C1=O [Compound 155, 3-[(2S)-2-Aminopropyl]-(5Z)-5-({1-[4-chloro-2-(trifluoromethyl)benzyl]-1H-indazol-5-yl}methylidene)-1,3-thiazolidine-2,4-dione]",-60,-55
9,"O=C(O)CN1C(=O)S/C(=C\c2ccc3c(cnn3Cc3ccc(Cl)cc3C(F)(F)F)c2)C1=O [Compound 4, (5Z)-5-{[1-(4-Chloro-2-trifluoromethylbenzyl)-1H-indazol-5-yl]methylidene}-2,4-dioxothiazolidin-3-ylacetic acid]",-50,-14
25,"CN1CC[C@H](N2C(=O)S/C(=C\c3ccc4c(cnn4Cc4ccc(Cl)cc4C(F)(F)F)c3)C2=O)C1 [Compound 143, (5Z)-5-({1-[4-Chloro-2-(trifluoromethyl)benzyl]-1H-indazol-5-yl}methylidene)-3-[(3S)-1-methylpyrrolidin-3-yl]-1,3-thiazolidine-2,4-dione]",-49,-29
9,"COc1ccc(Cn2ncc3cc(/C=C4\SC(=O)N(CC(=O)O)C4=O)ccc32)c(C(F)(F)F)c1 [Compound 19, [(5Z)-5-({1-[4-Methoxy-2-(trifluoromethyl)benzyl]-1H-indazol-5-yl}methylidene)-2,4-dioxo-1,3-thiazolidin-3-yl]acetic acid]",-9,21
47,"O=C(O)CCCN1C(=O)S/C(=C\c2ccc3c(cnn3Cc3ccc(Cl)cc3C(F)(F)F)c2)C1=O [Compound 97, 4-[(5Z)-5-({1-[4-Chloro-2-(trifluoromethyl)benzyl]-1H-indazol-5-yl}methylidene)-2,4-dioxo-1,3-thiazolidin-3-yl]butanoic acid]",,
170,"O=C1S/C(=C\c2ccc3c(cnn3Cc3ccc(Cl)cc3C(F)(F)F)c2)C(=O)N1C[C@@H]1CNCCO1 [Compound 183, (5Z)-5-({1-[4-Chloro-2-(trifluoromethyl)benzyl]-1H-indazol-5-yl}methylidine)-3-[(2S)-morpholin-2-ylmethyl]-1,3-thiazolidine-2,4-dione]",,
